From paper PMC6332446, “Acylphloroglucinol Derivatives from the South African Helichrysum niveum and Their Biological Activities” (Molecules, 2015)

How the values were obtained:
mushroom tyrosinase = experiment: Tyrosinase enzyme assay; assay type: biochemical; details: L-Tyrosine substrate; samples screened at 100.00 μg/mL upper limit
Experimental: Tyrosinase Enzyme Assay: The tyrosinase inhibitory activity was measured using the spectrophotometric method previously described. Samples were dissolved in DMSO to a stock solution of 1 mg/mL, and further dilutions were then done with 50 mM sodium phosphate buffer (pH 6.5) for all working solutions. […] In the wells of a 96-well plate, 70 µL of each sample working solution was combined with 30 μL of tyrosinase (500 Units/mL in sodium phosphate buffer) in triplicate. After incubation at room temperature for 5 min, 110 μL of substrate (2 mM L-Tyrosine) was added to each well. Final concentrations of the crude extract, isolated compounds, and positive control ranged from 1.0–100 μg/mL. Incubation commenced for 30 min at room temperature and the enzyme activity was determined by measuring the absorbance at 490 nm. The percentage of tyrosinase inhibition was calculated as follows: Tyrosinase inhibition (%) = [(A − B) − (C − D)]/(A − B) × 100 (1) where A is the absorbance of the control with the enzyme, B is the absorbance of the control without the enzyme, C is the absorbance of the test sample with the enzyme and D is the absorbance of the test sample without the enzyme.

[1] = ORAC assay, hydroxyl radical absorbance capacity (ORACOH); details: trolox equivalents; H2O2 0.3%, Cu2+ 18 μM, 37 °C; ± % STDEV
Experimental: (§1) Automated Oxygen Radicals Absorbance Capacity (ORAC) Assay: ORAC was measured according to the method previously described. The method measures the antioxidant scavenging capacity for (a) peroxyl radicals generated by thermal decomposition of 2,2ʹ-azobis ([…]) dihydrochloride (AAPH; ORACROO assay); (b) hydroxyl radical (ORACOH assay), generated by H2O2-Cu^2+ (H2O2, 0.3%; Cu^2+ [as CuSO4], 18 μM, or (c) Cu^2+ [as CuSO4], 18 μM as a transition metal oxidant at 37 °C. ORAC values were expressed as micromoles of trolox equivalents (TE) per milligram of test sample, except when Cu^2+ (without H2O2) was used as an oxidant in the assay. In the presence of Cu^2+ without H2O2, test samples acted as prooxidants rather than antioxidants in the ORAC assay. The copper-initiated prooxidant activity was calculated using [(AreaBlank − AreaSample)/AreaBlank] × 100 and expressed as prooxidant units; one unit equals the prooxidant activity that reduces the area under the fluorescein decay curve by 1% in the ORAC assay.

Rat liver microsomes = details: Fe2+-induced, TBARs, samples screened at 50.00 μg/mL, ± STDEV
[2] = Copper-initiated prooxidant activity in the ORAC assay; details: Cu2+ 18 μM without H2O2, 37 °C; one unit = 1% reduction of area under fluorescein decay curve
Experimental: as §1

[3] = biological target: Acetylcholinesterase (AChE) (Homo sapiens, UniProt P22303); experiment: biochemical; details: 500.00 μg/mL upper concentration limit; read-out: Inhibitory Activities IC50, Acetylcholinesterase (converted)
Experimental: Acetylcholinesterase Inhibition Assay: Acetylcholinesterase (AChE) inhibitory activity was measured using Ellman’s method as previously described with minor modifications. AChE catalysis the hydrolysis of acetythiocholine iodide (ACTI as substrate) to thiocholine, which can then react with Ellman’s reagent (DTNB) to produce 5-thio-2-nitrobenzoate (yellow color). In the presence of samples (inhibitors), the release of 5-thio-2-nitrobenzoate (yellow color) is reduced and it is monitored by measuring the absorbance at 450 nm.
In a 96-Well plate, the reaction mixture contains 50 µL of samples pre-incubated with 125 µL of 3 mM 5,5ʹ-Dithiobis-(2-nitrobenzoic acid), and 25 µL AChE (2.0 U/mL), in 50 mM tris-HCl buffer (pH 8.0), with 0.1% bovine serum albumin (BSA) for 15 minutes at 25 °C. Subsequently, 25 µL (15 mM) ACTI was added to the incubation mixture and further incubated for 10 min at 25 °C. […] Absorbance was recorded at 450 nm. The percent AChE inhibitory activity is given by: [A0 − (B − C)]/A0 × 100 (3) where A0 = full enzymatic reaction; B = Activity in the presence of sample; and C = Activity without sample.

[4] = ORAC assay, peroxyl radical absorbance capacity (ORACROO); details: trolox equivalents; AAPH, 37 °C; ± % STDEV
Experimental: as §1

[5] = Trolox equivalent absorbance capacity (TEAC) assay; details: trolox equivalents; absorbance 734 nm, 25 °C
Experimental: Trolox Equivalent Absorbance Capacity (TEAC) Assay: The total antioxidant capacity of the test samples in terms of TEAC were measured using a previously described method. Absorbance was read at 734 nm at 25 °C in a plate reader and the results were expressed as μM trolox equivalents per milligram dry weight (μM TE/g DW) of the test samples.

[6] = Ferric-ion reducing antioxidant power (FRAP) assay; details: ascorbic acid equivalents; absorbance 593 nm; ± % STDEV
Experimental: Ferric-Ion Reducing Antioxidant Power (FRAP) Assay: Working FRAP reagent was prepared in accordance to the method described previously. Absorbance was measured at 593 nm. L-ascorbic acid was used as a standard and the results were expressed as μM ascorbic acid equivalents per milligram dry weight (μM AAE/g DW) of the test samples.

[7] = biological target: T1, elastase from porcine pancrease (Sus scrofa, UniProt P00772); experiment: biochemical; details: SANA substrate; samples screened at 100.00 μg/mL upper limit; read-out: Inhibitory Activities IC50, Elastase (converted)
T1 construct: from tissue; host or cells: porcine pancreas
Experimental: Elastase Inhibition Assay: Inhibition of elastase by the test samples was assayed using N-succyl-(Ala)-3-nitroanilide (SANA) as the substrate, monitoring the release of p-nitroanilide by the method described previously. The inhibitory activity determined the intensity of color released during cleavage of SANA by the action of elastase. Briefly, 1 mM SANA was prepared in 0.1 M Tris-HCl buffer pH 8.0 and 200 μL of this solution was added to the 20 μL of sample solution in a 96-Well plate. The mixtures were vortexed and preincubated for 10 min at 25 °C and then 20 μL of elastase from porcine pancrease (0.03 Units/mL) was added. The mixtures were further incubated for 10 min and the absorbance was measured at 410 nm. Methanol was used as control, while oleanolic acid used as a positive control.

Chain of Acetylcholinesterase (AChE) (P22303 32-614, species assumed): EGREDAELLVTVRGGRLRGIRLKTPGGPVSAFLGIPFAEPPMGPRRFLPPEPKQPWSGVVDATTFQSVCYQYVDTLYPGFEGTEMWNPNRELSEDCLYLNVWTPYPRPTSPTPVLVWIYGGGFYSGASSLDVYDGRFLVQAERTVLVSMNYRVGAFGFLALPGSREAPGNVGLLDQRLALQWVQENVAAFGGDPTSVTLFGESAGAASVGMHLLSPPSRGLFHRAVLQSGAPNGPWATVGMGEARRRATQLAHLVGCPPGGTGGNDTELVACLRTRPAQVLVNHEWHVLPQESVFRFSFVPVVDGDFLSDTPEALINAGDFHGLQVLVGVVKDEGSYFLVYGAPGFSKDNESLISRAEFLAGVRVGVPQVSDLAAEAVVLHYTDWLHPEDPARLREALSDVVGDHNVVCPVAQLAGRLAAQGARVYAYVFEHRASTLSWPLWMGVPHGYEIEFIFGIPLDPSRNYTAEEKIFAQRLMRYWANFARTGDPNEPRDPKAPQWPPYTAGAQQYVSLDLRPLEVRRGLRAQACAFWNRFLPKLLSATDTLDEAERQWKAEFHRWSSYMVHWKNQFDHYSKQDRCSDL
T1 sequence (P00772 27-266): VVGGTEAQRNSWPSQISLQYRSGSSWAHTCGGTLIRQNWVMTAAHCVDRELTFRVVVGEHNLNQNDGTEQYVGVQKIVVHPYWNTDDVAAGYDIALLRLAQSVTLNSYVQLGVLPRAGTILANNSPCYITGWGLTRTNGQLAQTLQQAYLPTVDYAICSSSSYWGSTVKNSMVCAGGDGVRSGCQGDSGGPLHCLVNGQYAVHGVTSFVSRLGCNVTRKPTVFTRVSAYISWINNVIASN

Row | SMILES | Inhibitory Activities IC50, Tyrosinase (mushroom tyrosinase) [µg/mL] | Hydroxyl (ORACOH) [1] | Anti-Lipid peroxidation IC50 (Rat liver microsomes) [µg/mL] | Prooxidant (copper-initiated prooxidant activity) [2] [prooxidant units] | IC50 [3] [µM] | Peroxyl (ORAC peroxyl radical absorbance capacity) [4] [µM TE/g] | TEAC [5] [μM TE/g DW] | FRAP [6] [µMAAE/g] | IC50 [7] [µM]
1 | CCCC(=O)c1c(O)cc(O)c(CC=C(C)C)c1O [Compound 6, 1-(butanone)-3-prenyl-phloroglucinol] | >100.00 | 18.07± 3.47 × 10^6 µMTE/g | 30.80 ± 2.12 | 64.37 ± 0.22 | 957 | 13544.93 ± 12.13 | 4316.61 ± 1.06 | 1183.52 ± 6.20 | 134
2 | CC1(C)CC[C@]2(C)CC=C3[C@](C)(CCC4[C@@]5(C)CC[C@H](O)[C@](C)(CO)C5CC[C@@]34C)C2C1 (stereo partly drawn) [Compound 11, 3β-24-dihydroxyterexer-14-ene] | >100.00 | 0.89 ± 7.34 × 10^6 µMTE/g | >50.00 | 31.38 ± 7.00 | 707 | 1193.10 ± 1.68 | 1323.61 ± 1.76 | 197.99 ± 3.90 | > 226
3 | CC(=O)OC/C(C)=C/Cc1c(O)cc(O)c(C(=O)C(C)C)c1O [Compound 10, caespitate] | >100.00 | 16.26 ± 15.39 × 10^6 µMTE/g | 20.50 ± 4.01 | 92.31 ± 1.59 | 777 | 16735.55 ± 21.72 | 8705.14 ± 1.83 | 1019.28 ± 1.79 | 182
4 | CC(=O)OC/C(C)=C/Cc1c(O)cc(O)c(C(=O)c2ccccc2)c1O [Compound 1, 1-benzoyl-3(3-methylbut-2-enylacetate)-phloroglucinol] | 35.63 ± 4.67 | 64.85 ± 10.95 × 10^6 µMTE/g | 5.12 ± 0.90 | 8.92 ± 1.15 | 752 |  | 19545.00 ± 10.25 | 2530.54 ± 0.92 | > 281
5 | O=C(O[C@@H]1Cc2c(O)cc(O)cc2O[C@@H]1c1cc(O)c(O)c(O)c1)c1cc(O)c(O)c(O)c1 [EGCG, epigallocatechin gallate, reference compound] |  | 3.91 ± 4.65 × 10^6 µMTE/g | 1.04 ± 1.02 | 6.48 ± 1.19 |  |  | 11545.44 ± 17.28 | 3326.45 ± 5.76 | 
6 | C=C(C)[C@@H](O)Cc1c(O)cc(O)c(C(=O)c2ccccc2)c1O [Compound 2, 1-benzoyl-3(2S-hydroxyl-3-methylbut-3-enyl)-phloroglucinol] | 26.72 ± 5.05 | 94.97 ± 5.88 × 10^6 µMTE/g | 3.55 ± 1.92 | 756.90 ± 1.98 | 852 |  | 43615.73 ± 6.66 | 4950.08 ± 0.65 | > 318
7 | CC(C)=CCc1c(O)cc(O)c(C(=O)C(C)C)c1O [Compound 9, 1-(2-methylpropanone)-3-prenylphloroglucinol] | >100.00 | 24.24 ± 1.71 × 10^6 µMTE/g | 20.95 ± 2.62 | 69.54 ± 0.29 |  | 13639.27 ± 17.62 | 4423.32 ± 3.11 | 1096.01 ± 1.12 | 233
